Patent US9211278B2, “Composition containing arylnaphthalene lignan derivative for preventing and/or treating dementia” (KOREA INSTITUTE OF SCIENCE AND TECHNOLOGY, priority 2012, dated 2015)

Key:
[1] = tested on: beta-amyloid (Aβ40, Aβ42) formation; experiment: Beta-amyloid (Aβ40, Aβ42) formation, ELISA, in APP-transfected HeLa cells; format: cell-based, human; settings: for inhibition of beta-amyloid (Aβ40, Aβ42) formation: HeLa-APP cells, various concentrations (FIGS. 1, 2, 6); for inhibition at 5 µg/mL / inhibition at 1 µM: Homo sapiens, HeLa, read-out: inhibitory effect on the beta-amyloid; for inhibition at 5 µg/mL: 5 μg/ml
Experimental: To test the inhibitory effect of Justicidin A (C1) obtained in Example 2 on the beta-amyloid formation, HeLa cell line transfected with the amyloid precursor protein (APP) driven from human was cultured in DMEM solution (Cat. #11995, Gibco, USA) for use. The cell line was received from Prof. Tae-Wan Kim at Department of Pathology, Columbia University Medical Center, New York, N.Y. 10032, USA.
Specifically, the Justicidin A of Example 2 was added into the cell line culture at the amount indicated in FIG. 1, and then the produced amount of be-amyloid (Aβ40, Aβ42 was measured. Human β-Amyloid[1-40](Aβ40), Human β-Amyloid [1-42](Aβ42) Colorimetric ELISA kit (#KHB3482 and #KHB3442; BioSource International, Inc., U.S.A.) were used to quantify two types of beta-amyloid (Aβ40, Aβ42).
The 5-methoxyJusticidin A (C2) of Example 2 was added into the cell line culture at the amount indicated in FIG. 2, and then the produced amount of be-amyloid was measured according to the method of Example 1.1. The group which was not treated with 5-methoxyjusticidin A was used as a negative control.
The compounds were used at the amount of FIG. 6, and measured for the beta-amyloid (Aβ40, Aβ42) formation according to the same method of Experimental Example <1-1>. The group treated with Justicidin A(C1) was a positive control and the group with no treatment was a negative control.

[2] = tested on: alpha-secretase product (sAPPα); experiment: Alpha-secretase product (sAPPα) production, Western blotting; format: cell-based, human; settings: 8 hours, concentrations of FIG. 5
Experimental: The test result confirmed that Justicidin A (C1) obtained in Example 2 and 5-methoxyJusticidin A increased alpha-secretase product (sAPPα). Specifically, the produced amount of sAPPα was measured by treating the cultured cell line (the HeLa cell line transfected with the amyloid precursor protein (APP) driven from human) with Justicidin A (S62-C1) or 5-methoxyJusticitdin A (S62-C2) at a concentration of FIG. 5, culturing it for 8 hours, and measuring the produced amount of sAPPα according to the Western blotting. The negative control was the group with no treatment of Justicidin A or 5-methoxyJusticidin A.

Compound | inhibition of beta-amyloid (Aβ40, Aβ42) formation [1] | inhibition at 1 µM [1] | further results
COc1cc2c(-c3ccc4c(c3)OCO4)c3c(c(OC)c2c(OC)c1OC)COC3=O [5-methoxyJusticidin A] | inhibited the beta-amyloid (Aβ40, Aβ42) formation at a concentration-dependent manner |  | formation of alpha-secretase product (sAPPα) [2]: activated the formation of alpha-secretase product (sAPPα)
COc1ccc(-c2c3c(c(O)c4cc5c(cc24)OCO5)COC3=O)cc1OC [Chinensinaphthol] |  |  | inhibition at 5 µg/mL [1]: ~50%
COc1c2c(cc3c(-c4ccc5c(c4)OCO5)c4c(cc13)C(=O)OC4)OCO2 [Justicidin G, reference compound] |  | ~20% | 
COc1c2c(c(-c3ccc4c(c3)OCO4)c3cc4c(cc13)OCO4)COC2=O [Justicidin D, reference compound] |  | ~20% | 
COc1c2c(c(-c3ccc4c(c3)OCO4)c3cc4c(cc13)OCO4)C(=O)OC2 [Justicidin F, reference compound] |  | ~20% | 
COc1ccc(CC2COC(=O)/C2=C/c2ccc3c(c2)OCO3)cc1OC (stereo not drawn) [succilactone] | did not show nearly the inhibition |  | inhibition at 5 µg/mL [1]: ~10%
COc1ccc(-c2c3c(c(OC)c4cc5c(cc24)OCO5)C(=O)OC3)cc1OC [retrochinensinaphthol methyether, Retrochinensinaphthol methylether] | did not show nearly the inhibition |  | 
